Test results published in patent US20080009418A1, “Selective Inhibitors” (Alchemia LTD., priority 2004, published 2008).

What was measured:
Human Melanocortin (MC3) = biological target: T1, Human Melanocortin (MC3) (Homo sapiens, UniProt P41968); test: Radioligand binding, human melanocortin MC3 membranes, FlashPlate, [125I]-NDP-αMSH; details: compound at 10 μM; for A3: inhibition of radioligand binding, human melanocortin (MC3): [125I]-NDP-αMSH
T1 construct: purchased Perkin Elmer Biosignal
In short: (§1)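 Cloned human receptor membranes were coated onto FlashPlate wells and incubated with radioligand and compound (added from a 0.5 mM DMSO daughter plate) for 1 hour at room temperature in the dark. Scintillation counting gave percent inhibition, with DMSO defining total and reference ligand defining non-specific binding.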

Human Melanocortin (MC4) = biological target: T2, Human Melanocortin (MC4) (Homo sapiens, UniProt P32245); test: Radioligand binding, human melanocortin MC4 membranes, FlashPlate, [125I]-NDP-αMSH; details: compound at 10 μM; for A4: inhibition of radioligand binding, human melanocortin (MC4): [125I]-NDP-αMSH
T2 construct: purchased Perkin Elmer Biosignal
In short: as §1

Human κ-Opioid (KOP) = biological target: T3, Human κ-Opioid (KOP) (Homo sapiens, UniProt P41145); test: Radioligand binding, human κ-opioid (KOP) membranes, filtration, [3H]-Diprenorphine; details: compound at 10 μM; for A2: inhibition of radioligand binding, human κ-opioid (KOP): [3H]-Diprenorphine
T3 construct: purchased Perkin Elmer Biosignal
In short: (§2)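 Filtration binding on cloned human receptor membranes (1 Unit/well), [125I]-Substance P for NK1 and [3H]-Diprenorphine for KOP, 1 h at room temperature. Filters PEI-presoaked, washed with cold 50 mM Tris-HCl pH 7.4, counted by scintillation; percent inhibition calculated, reference ligand defining non-specific binding.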

Human neurokinin (NK1) = biological target: T4, Human neurokinin (NK1) (Homo sapiens, UniProt P25103); test: Radioligand binding, human neurokinin NK1 membranes, filtration, [125I]-Substance P; details: compound at 10 μM; for A8: inhibition of radioligand binding, human neurokinin (NK1): [125I]-Substance P
T4 construct: purchased Perkin Elmer Biosignal
In short: as §2

Mouse urotensin (mUR2) = biological target: T5, Mouse urotensin (mUR2) (Mus musculus, UniProt Q8VIH9); test: Radioligand binding, mouse urotensin mUR2 membranes, FlashPlate, [125I]-Urotensin II; details: compound at 10 μM; for A11: inhibition of radioligand binding, mouse urotensin (mUR2): [125I]-Urotensin II
T5 construct: purchased Perkin Elmer Biosignal
T5 sequence (Q8VIH9 1-385): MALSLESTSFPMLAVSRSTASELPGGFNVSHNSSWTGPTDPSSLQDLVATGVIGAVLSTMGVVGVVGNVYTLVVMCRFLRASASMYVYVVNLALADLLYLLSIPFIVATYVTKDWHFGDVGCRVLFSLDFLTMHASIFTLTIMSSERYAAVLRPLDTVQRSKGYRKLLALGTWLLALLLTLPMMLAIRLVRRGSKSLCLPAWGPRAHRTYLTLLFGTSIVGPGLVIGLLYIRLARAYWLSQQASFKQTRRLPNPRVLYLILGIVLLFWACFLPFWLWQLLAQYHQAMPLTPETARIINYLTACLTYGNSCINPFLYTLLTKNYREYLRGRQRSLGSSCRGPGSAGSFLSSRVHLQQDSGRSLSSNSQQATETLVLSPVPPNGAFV
In short: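 Cloned mouse urotensin (mUR2) receptor membranes from Perkin Elmer Biosignal were immobilized in FlashPlate microplates using a proprietary coating. Each well got 19.5 μl buffer, then 0.5 μl of DMSO, reference ligand, or compound. Adding 5 μl of [125I]-Urotensin II, diluted to 5× final concentration in binding buffer, started binding. Plates were sealed with TopSeal-A and incubated 1 hour at room temperature in the dark. Wells were counted for 30 seconds each on a TopCount after a 60-second delay, and percentage inhibition was calculated.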

Human μ-opioid (MOP) = biological target: T6, Human μ-opioid (MOP) (Homo sapiens, UniProt P35372); test: Radioligand binding, human μ-opioid (MOP) membranes, FlashPlate, [3H]-Naloxone; details: compound at 10 μM; for A7: inhibition of radioligand binding, human μ-opioid (MOP): [3H]-Naloxone
T6 construct: purchased Perkin Elmer Biosignal
In short: as §1

[1] = biological target: T7, Human melanin-concentrating hormone (MCH1) (Homo sapiens, UniProt Q99705); test: Radioligand binding, human melanin-concentrating hormone MCH1 membranes, FlashPlate, [125I]-S36057; details: compound at 10 μM; for A6: inhibition of radioligand binding, human melanin-concentrating hormone (MCH1): [125I]-S36057
T7 construct: purchased Perkin Elmer Biosignal
In short: as §1

Human melanocortin (MC5) = biological target: T8, Human melanocortin (MC5) (Homo sapiens, UniProt P33032); test: Radioligand binding, human melanocortin MC5 membranes, FlashPlate, [125I]-NDP-αMSH; details: compound at 10 μM; for A5: inhibition of radioligand binding, human melanocortin (MC5): [125I]-NDP-αMSH
T8 construct: purchased Perkin Elmer Biosignal
In short: as §1

[2] = biological target: T9, Human neuropeptide Y (NPY-Y1) (Homo sapiens, UniProt P25929); test: Radioligand binding, human neuropeptide Y NPY-Y1 membranes, FlashPlate, [125I]-PYY; details: compound at 10 μM; for A9: inhibition of radioligand binding, human neuropeptide Y (NPY-Y1): [125I]-PYY
T9 construct: purchased Perkin Elmer Biosignal
T9 sequence (P25929 1-384): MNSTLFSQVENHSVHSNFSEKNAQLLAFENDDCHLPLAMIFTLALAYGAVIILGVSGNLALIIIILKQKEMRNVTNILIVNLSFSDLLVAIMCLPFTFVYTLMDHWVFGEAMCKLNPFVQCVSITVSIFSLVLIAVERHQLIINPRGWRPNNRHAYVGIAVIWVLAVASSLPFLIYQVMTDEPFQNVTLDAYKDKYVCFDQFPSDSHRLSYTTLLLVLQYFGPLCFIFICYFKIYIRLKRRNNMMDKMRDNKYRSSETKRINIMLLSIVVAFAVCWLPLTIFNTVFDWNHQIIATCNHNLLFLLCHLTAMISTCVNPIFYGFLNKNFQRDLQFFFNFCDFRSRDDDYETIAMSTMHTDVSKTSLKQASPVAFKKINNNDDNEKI
In short: as §1

Human δ-opioid (DOP) = biological target: T10, Human δ-opioid (DOP) (Homo sapiens, UniProt P41143); test: Radioligand binding, human δ-opioid (DOP) membranes, FlashPlate, [3H]-Bremazocine; details: compound at 10 μM; for A1: inhibition of radioligand binding, human δ-opioid (DOP): [3H]-Bremazocine
T10 construct: purchased Perkin Elmer Biosignal
In short: as §1

Human opioid (ORL1) = biological target: T11, Human opioid (ORL1) (Homo sapiens, UniProt P41146); test: Radioligand binding, human opioid ORL1 membranes, FlashPlate, [125I]-Nociceptin; details: compound at 10 μM; for A10: inhibition of radioligand binding, human opioid (ORL1): [125I]-Nociceptin
T11 construct: purchased Perkin Elmer Biosignal
In short: as §1

T6 sequence (P35372 whole entry): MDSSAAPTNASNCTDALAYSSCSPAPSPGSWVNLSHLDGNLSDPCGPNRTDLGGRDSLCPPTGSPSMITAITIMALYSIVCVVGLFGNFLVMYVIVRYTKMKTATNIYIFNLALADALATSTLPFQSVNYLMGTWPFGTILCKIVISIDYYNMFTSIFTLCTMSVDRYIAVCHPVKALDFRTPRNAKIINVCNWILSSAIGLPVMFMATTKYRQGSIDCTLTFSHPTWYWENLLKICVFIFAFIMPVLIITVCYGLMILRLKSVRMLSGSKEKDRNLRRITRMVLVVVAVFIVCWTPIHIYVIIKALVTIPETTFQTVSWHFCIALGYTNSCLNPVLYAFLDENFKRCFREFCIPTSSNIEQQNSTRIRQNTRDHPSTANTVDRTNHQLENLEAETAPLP
T3 sequence (P41145 whole entry): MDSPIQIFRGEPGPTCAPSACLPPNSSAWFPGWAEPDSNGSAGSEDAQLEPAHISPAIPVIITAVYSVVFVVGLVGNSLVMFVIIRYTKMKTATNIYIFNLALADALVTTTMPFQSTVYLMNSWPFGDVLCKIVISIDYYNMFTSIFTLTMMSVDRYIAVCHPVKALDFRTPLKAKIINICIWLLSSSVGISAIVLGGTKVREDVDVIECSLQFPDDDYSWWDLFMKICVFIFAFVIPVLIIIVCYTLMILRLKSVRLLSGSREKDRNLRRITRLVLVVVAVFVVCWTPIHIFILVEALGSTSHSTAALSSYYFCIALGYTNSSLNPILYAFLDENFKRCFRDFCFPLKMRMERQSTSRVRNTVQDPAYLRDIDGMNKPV
T2 sequence (P32245 whole entry): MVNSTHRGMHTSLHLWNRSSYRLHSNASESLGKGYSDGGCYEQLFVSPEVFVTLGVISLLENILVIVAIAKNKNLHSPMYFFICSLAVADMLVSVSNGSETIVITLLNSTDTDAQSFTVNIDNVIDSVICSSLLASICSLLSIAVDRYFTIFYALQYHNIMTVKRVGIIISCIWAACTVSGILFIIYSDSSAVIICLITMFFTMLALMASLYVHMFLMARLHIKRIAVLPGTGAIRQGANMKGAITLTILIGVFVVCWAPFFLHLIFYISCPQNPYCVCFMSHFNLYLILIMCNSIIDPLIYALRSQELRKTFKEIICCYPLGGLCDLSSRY
T11 sequence (P41146 whole entry): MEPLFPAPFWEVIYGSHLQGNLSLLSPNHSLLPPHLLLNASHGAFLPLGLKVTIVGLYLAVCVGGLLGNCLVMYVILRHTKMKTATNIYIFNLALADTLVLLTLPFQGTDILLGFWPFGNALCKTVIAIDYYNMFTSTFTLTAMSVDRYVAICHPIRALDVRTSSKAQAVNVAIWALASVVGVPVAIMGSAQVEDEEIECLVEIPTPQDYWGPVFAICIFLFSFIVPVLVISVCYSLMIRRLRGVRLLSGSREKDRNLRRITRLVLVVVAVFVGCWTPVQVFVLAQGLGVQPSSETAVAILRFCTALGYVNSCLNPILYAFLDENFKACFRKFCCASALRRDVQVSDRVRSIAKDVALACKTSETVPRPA
T7 sequence (Q99705 whole entry): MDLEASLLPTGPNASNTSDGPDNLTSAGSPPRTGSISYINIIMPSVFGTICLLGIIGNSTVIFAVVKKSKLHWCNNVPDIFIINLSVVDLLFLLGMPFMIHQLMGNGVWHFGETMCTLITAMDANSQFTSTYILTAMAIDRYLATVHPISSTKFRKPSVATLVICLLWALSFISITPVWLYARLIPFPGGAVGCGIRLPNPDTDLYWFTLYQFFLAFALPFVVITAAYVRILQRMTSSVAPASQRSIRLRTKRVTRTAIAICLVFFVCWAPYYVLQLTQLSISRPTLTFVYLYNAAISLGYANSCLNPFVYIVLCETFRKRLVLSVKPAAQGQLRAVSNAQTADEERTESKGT
T8 sequence (P33032 whole entry): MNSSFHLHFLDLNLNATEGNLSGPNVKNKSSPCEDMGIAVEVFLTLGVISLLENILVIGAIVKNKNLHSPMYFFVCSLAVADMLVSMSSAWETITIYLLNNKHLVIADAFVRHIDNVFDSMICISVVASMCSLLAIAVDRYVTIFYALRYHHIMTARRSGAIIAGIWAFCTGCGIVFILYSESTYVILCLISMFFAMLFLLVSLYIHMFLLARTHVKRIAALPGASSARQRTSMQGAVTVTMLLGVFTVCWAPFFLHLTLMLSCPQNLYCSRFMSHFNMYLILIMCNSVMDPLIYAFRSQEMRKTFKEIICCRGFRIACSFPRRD
T4 sequence (P25103 whole entry): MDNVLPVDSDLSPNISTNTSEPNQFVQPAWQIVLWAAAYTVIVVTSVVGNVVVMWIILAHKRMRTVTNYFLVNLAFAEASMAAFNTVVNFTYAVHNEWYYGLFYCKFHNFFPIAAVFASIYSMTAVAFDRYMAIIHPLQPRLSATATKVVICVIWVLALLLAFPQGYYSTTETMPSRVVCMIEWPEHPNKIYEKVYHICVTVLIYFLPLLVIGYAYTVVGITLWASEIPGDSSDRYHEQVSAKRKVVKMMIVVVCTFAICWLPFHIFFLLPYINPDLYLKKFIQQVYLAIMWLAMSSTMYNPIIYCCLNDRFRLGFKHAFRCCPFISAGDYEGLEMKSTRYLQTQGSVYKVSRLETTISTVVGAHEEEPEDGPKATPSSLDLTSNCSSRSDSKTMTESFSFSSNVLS
T10 sequence (P41143 whole entry): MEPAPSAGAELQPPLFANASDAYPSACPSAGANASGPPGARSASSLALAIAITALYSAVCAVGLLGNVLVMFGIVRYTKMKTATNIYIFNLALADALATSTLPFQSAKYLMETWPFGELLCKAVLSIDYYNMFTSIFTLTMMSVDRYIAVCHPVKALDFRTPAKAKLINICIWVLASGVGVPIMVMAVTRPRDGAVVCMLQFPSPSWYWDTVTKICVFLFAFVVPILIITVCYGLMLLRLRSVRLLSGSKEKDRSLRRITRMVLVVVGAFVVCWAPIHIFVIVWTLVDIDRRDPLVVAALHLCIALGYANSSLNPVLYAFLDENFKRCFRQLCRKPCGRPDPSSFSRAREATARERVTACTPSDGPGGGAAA
T1 sequence (P41968 whole entry): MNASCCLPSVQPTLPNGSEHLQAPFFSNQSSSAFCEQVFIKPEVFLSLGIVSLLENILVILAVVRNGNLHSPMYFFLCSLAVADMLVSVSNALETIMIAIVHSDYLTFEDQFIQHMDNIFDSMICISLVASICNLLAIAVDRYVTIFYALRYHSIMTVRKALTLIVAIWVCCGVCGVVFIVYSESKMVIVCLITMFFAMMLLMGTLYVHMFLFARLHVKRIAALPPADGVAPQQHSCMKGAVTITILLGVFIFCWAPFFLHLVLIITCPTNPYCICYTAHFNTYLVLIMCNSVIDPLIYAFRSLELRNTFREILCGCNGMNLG

Row | SMILES | A3: inhibition of radioligand binding, human melanocortin (MC3) (Human Melanocortin (MC3)) | A4: inhibition of radioligand binding, human melanocortin (MC4) (Human Melanocortin (MC4)) | A2: inhibition of radioligand binding, human κ-opioid (KOP) (Human κ-Opioid (KOP)) | A8: inhibition of radioligand binding, human neurokinin (NK1) (Human neurokinin (NK1)) | A11: inhibition of radioligand binding, mouse urotensin (mUR2) (Mouse urotensin (mUR2)) | A7: inhibition of radioligand binding, human μ-opioid (MOP) (Human μ-opioid (MOP)) | A6: inhibition of radioligand binding, human melanin-concentrating hormone (MCH1) [1] | A5: inhibition of radioligand binding, human melanocortin (MC5) (Human melanocortin (MC5)) | A9: inhibition of radioligand binding, human neuropeptide Y (NPY-Y1) [2] | A1: inhibition of radioligand binding, human δ-opioid (DOP) (Human δ-opioid (DOP)) | A10: inhibition of radioligand binding, human opioid (ORL1) (Human opioid (ORL1)) | also measured
1 | COC[C@H]1OC(OCc2ccc3ccccc3c2)[C@H](NC(=O)CNC(=N)N)[C@@H](OCc2ccc3ccccc3c2)[C@@H]1O (stereo partly shown) [compound 17] |  |  |  |  |  |  |  |  |  |  |  | A3 radioligand binding inhibition (Human Melanocortin (MC3); human melanocortin MC3 membranes): − (“−” indicates less than 50% inhibition at 10 μM); A4 radioligand binding inhibition (Human Melanocortin (MC4); human melanocortin MC4 membranes): + (“+” indicates greater than 50% inhibition at 10 μM); A2 radioligand binding inhibition (Human κ-Opioid (KOP); human κ-opioid (KOP) membranes): − (“−” indicates less than 50% inhibition at 10 μM); A8 radioligand binding inhibition (Human neurokinin (NK1); human neurokinin NK1 membranes): + (“+” indicates greater than 50% inhibition at 10 μM); A11 radioligand binding inhibition (Mouse urotensin (mUR2); mouse urotensin mUR2 membranes): − (“−” indicates less than 50% inhibition at 10 μM); A7 radioligand binding inhibition (Human μ-opioid (MOP); human μ-opioid (MOP) membranes): + (“+” indicates greater than 50% inhibition at 10 μM); A6 radioligand binding inhibition ([1]; human MCH1 membranes): + (“+” indicates greater than 50% inhibition at 10 μM); A5 radioligand binding inhibition (Human melanocortin (MC5); human melanocortin MC5 membranes): + (“+” indicates greater than 50% inhibition at 10 μM); A9 radioligand binding inhibition ([2]; human NPY-Y1 membranes): − (“−” indicates less than 50% inhibition at 10 μM); A1 radioligand binding inhibition (Human δ-opioid (DOP); human δ-opioid (DOP) membranes): − (“−” indicates less than 50% inhibition at 10 μM); A10 radioligand binding inhibition (Human opioid (ORL1); human ORL1 membranes): − (“−” indicates less than 50% inhibition at 10 μM)
2 | CSC1OC(COCc2ccc(Cl)cc2)C(O)C(OCc2cccc(N)c2)C1NC(=O)c1c[nH]c2ccccc12 (stereo not shown) [compound 323] | − (“−” indicates less than 50% inhibition at 10 μM) | − (“−” indicates less than 50% inhibition at 10 μM) | − (“−” indicates less than 50% inhibition at 10 μM) | + (“+” indicates greater than 50% inhibition at 10 μM) | − (“−” indicates less than 50% inhibition at 10 μM) | − (“−” indicates less than 50% inhibition at 10 μM) | − (“−” indicates less than 50% inhibition at 10 μM) | − (“−” indicates less than 50% inhibition at 10 μM) | − (“−” indicates less than 50% inhibition at 10 μM) | − (“−” indicates less than 50% inhibition at 10 μM) | − (“−” indicates less than 50% inhibition at 10 μM) | 
3 | N=C(N)NCCC(=O)N[C@H]1C(OCc2ccc(Cl)cc2)O[C@H](COCc2ccccc2)[C@@H](O)[C@@H]1OCc1ccc(Cl)cc1 (stereo partly shown) [compound 524] |  |  |  | + (“+” indicates greater than 50% inhibition at 10 μM) | − (“−” indicates less than 50% inhibition at 10 μM) | − (“−” indicates less than 50% inhibition at 10 μM) | + (“+” indicates greater than 50% inhibition at 10 μM) | + (“+” indicates greater than 50% inhibition at 10 μM) | − (“−” indicates less than 50% inhibition at 10 μM) | − (“−” indicates less than 50% inhibition at 10 μM) | − (“−” indicates less than 50% inhibition at 10 μM) | A3: inhibition of radioligand binding, human melanocortin (MC3) (Human Melanocortin (MC3); 10 µM): − (“−” indicates less than 50% inhibition at 10 μM); A4: inhibition of radioligand binding, human melanocortin (MC4) (Human Melanocortin (MC4); 10 µM): − (“−” indicates less than 50% inhibition at 10 μM); A2: inhibition of radioligand binding, human κ-opioid (KOP) (Human κ-Opioid (KOP); 10 µM): − (“−” indicates less than 50% inhibition at 10 μM)
4 | N=C(N)NCCC(=O)N[C@H]1C(OCc2ccc(Cl)cc2)O[C@H](COCc2ccc(Cl)cc2)[C@@H](O)[C@@H]1OCc1ccc2ccccc2c1 (stereo partly shown) [compound 532] | + (“+” indicates greater than 50% inhibition at 10 μM) | + (“+” indicates greater than 50% inhibition at 10 μM) | + (“+” indicates greater than 50% inhibition at 10 μM) | + (“+” indicates greater than 50% inhibition at 10 μM) | − (“−” indicates less than 50% inhibition at 10 μM) | + (“+” indicates greater than 50% inhibition at 10 μM) | + (“+” indicates greater than 50% inhibition at 10 μM) | + (“+” indicates greater than 50% inhibition at 10 μM) | − (“−” indicates less than 50% inhibition at 10 μM) | − (“−” indicates less than 50% inhibition at 10 μM) | + (“+” indicates greater than 50% inhibition at 10 μM) | 
5 | NCCCC(=O)NC1C(OCc2ccccc2)OC(COCc2ccccc2)C(O)C1OCc1ccccc1 (stereo not shown) [compound 379] | − (“−” indicates less than 50% inhibition at 10 μM) | − (“−” indicates less than 50% inhibition at 10 μM) | − (“−” indicates less than 50% inhibition at 10 μM) | + (“+” indicates greater than 50% inhibition at 10 μM) | − (“−” indicates less than 50% inhibition at 10 μM) | − (“−” indicates less than 50% inhibition at 10 μM) | − (“−” indicates less than 50% inhibition at 10 μM) | + (“+” indicates greater than 50% inhibition at 10 μM) | − (“−” indicates less than 50% inhibition at 10 μM) | − (“−” indicates less than 50% inhibition at 10 μM) | − (“−” indicates less than 50% inhibition at 10 μM) | 
